From patent US20260022143A1, “Cyclic Peptide Inhibitors of IL-23” (JANSSEN PHARMACEUTICA NV, priority 2022, published 2026)
Starred links: 1 amine or outer side, 2 acyl side, 3 side chain; linkers in the order of their positions; H or OH if unused. Positions of bridges follow the written chain, without caps; N, C: chain ends. Non-standard residues stand in square brackets, D forms with d. Residues, ends and D or L forms follow the SMILES beside them. Groups on a side chain read outwards from the residue. *: point of attachment. X56 = CCCCCCCCCCCC(=O)NCCOCCOCC(=O)NCCOCCOCC(=O)NCC[N+](C)(C)CC(=O)*; Me3N+(CH2)2O(CH2)2O(CH2)2CO = C[N+](C)(C)CCOCCOCCC(=O)*; CH2CH2OCH2CH2OCH2CH2NMe3+ = C[N+](C)(C)CCOCCOCC*; Trp(7-Me) = Cc1cccc2c(C[C@H](N)C(=O)O)c[nH]c12; γGlu = O=C(O)[C@H](CCC(=O)[*:2])N[*:1]; 2Nal = N[C@@H](Cc1ccc2ccccc2c1)C(=O)O; 3Pal = N[C@@H](Cc1cccnc1)C(=O)O; Myristoyl = CCCCCCCCCCCCCC(=O)*; Lys(Me) = CNCCCC[C@H](N)C(=O)O; Agb = N=C(N)NCC[C@H](N)C(=O)O; NMeK = CN[C@@H](CCCCN)C(=O)O; Pen = CC(C)(S)[C@H](N)C(=O)O; X31 = N=C(N)NCCOCCC(=O)*; Thp = NC1(C(=O)O)CCOCC1; X3 = C[N+](C)(C)CCCCC*; X76 = N=C(N)NCCOCCOCC*; AEEA = NCCOCCOCC(=O)O; Sar = CNCC(=O)O

Assay: Exposed Polar Surface Area (EPSA)
Format: physicochemical
Settings: SFC on Chirex 3014 column; sample 1 mM DMSO stock; read-out: EPSA
Summary of the method: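 SFC retention on a Chirex 3014 (S)-valine/(R)-1-(α-naphthyl)ethylamine column, 35 °C, CO2 with MeOH (20 mM ammonium formate) gradient 5–60% at 20%/min, 14 MPa outlet. Retention times converted to EPSA (Å^2) via linear calibration with 8 standards; samples from 1 mM DMSO stock, run in duplicate.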

Row | SMILES | EPSA
1 | CCCCCCCCCCCCCC(=O)N[C@@H](CCC(=O)NCCOCCOCC(=O)NCCOCCOCC(=O)NCCCC[C@H](NC(=O)C1(NC(=O)[C@H](Cc2ccc3ccccc3c2)NC(=O)[C@H](Cc2ccc(OCCCCC[N+](C)(C)C)cc2)NC(=O)[C@H]2NC(=O)[C@H](CCCCN(C)C(C)=O)NC(=O)[C@H](Cc3c[nH]c4c(C)cccc34)NC(=O)[C@H]([C@@H](C)O)NC(=O)[C@H](CC(=O)N(C)C)NC(=O)[C@@H](NC(=O)[C@@H](CCCCNC(=O)COCCOCCNC(=O)COCCOCCNC(=O)CC[C@H](NC(=O)CCCCCCCCCCCCC)C(=O)O)NC(=O)CCOCCOCC[N+](C)(C)C)C(C)(C)SSC2(C)C)CCOCC1)C(=O)N[C@@H](CC(N)=O)C(=O)N[C@@H](Cc1cccnc1)C(=O)N(C)CC(=O)N(C)C)C(=O)O [compound 395, cPEG3aCO-k(PEG2PEG2gEC14)-Pen(3)-N(N(Me)2)-T-7MeW-K(NMeAc)-Pen(3)-TMAPF-2Nal-THP-K(PEG2PEG2gEC14)-N-3Pya-Sar-CON(Me)2] ({Me3N+(CH2)2O(CH2)2O(CH2)2CO}-[dK]([AEEA-AEEA-γGlu-Myristoyl])[Pen]D(NMe2)T[Trp(7-Me)][Lys(Me)](Ac)[Pen]Y(X3)[2Nal][Thp]K([AEEA-AEEA-γGlu-Myristoyl])N[3Pal][Sar]-NMe2; disulfide 2-7) | 189 A^2
2 | CCCCCCCCCCCCCC(=O)N[C@@H](CCC(=O)NCCOCCOCC(=O)NCCOCCOCC(=O)NCCCC[C@@H]1NC(=O)[C@H](Cc2c[nH]c3c(C)cccc23)NC(=O)[C@H]([C@@H](C)O)NC(=O)[C@H](CCCCNC(=O)COCCOCCNC(=O)COCCOCCNC(=O)CC[C@H](NC(=O)CCCCCCCCCCCCC)C(=O)O)NC(=O)[C@@H](NC(=O)CCOCCOCC[N+](C)(C)C)C(C)(C)SSC(C)(C)[C@@H](C(=O)N[C@@H](Cc2ccc(OCCCCC[N+](C)(C)C)cc2)C(=O)N[C@@H](Cc2ccc3ccccc3c2)C(=O)NC2(C(=O)N[C@@H](CCCCN(C)C(C)=O)C(=O)N[C@@H](CC(N)=O)C(=O)N[C@@H](Cc3cccnc3)C(=O)N(C)CC(=O)N(C)C)CCOCC2)NC1=O)C(=O)O [compound 396, cPEG3aCO-Pen(3)-K(PEG2PEG2gEC14)-T-7MeW-K(PEG2PEG2gEC14)-Pen(3)-TMAPF-2Nal-THP-K(NMeAc)-N-3Pya-Sar-CON(Me)2] ({Me3N+(CH2)2O(CH2)2O(CH2)2CO}-[Pen]K([AEEA-AEEA-γGlu-Myristoyl])T[Trp(7-Me)]K([AEEA-AEEA-γGlu-Myristoyl])[Pen]Y(X3)[2Nal][Thp][Lys(Me)](Ac)N[3Pal][Sar]-NMe2; disulfide 1-6) | 172 A^2
3 | CCCCCCCCCCCCCC(=O)N[C@@H](CCC(=O)NCCOCCOCC(=O)NCCOCCOCC(=O)NCCCC[C@@H]1NC(=O)[C@@H](NC(=O)CCOCCOCC[N+](C)(C)C)C(C)(C)SSC(C)(C)[C@@H](C(=O)N[C@@H](Cc2ccc(OCCCCC[N+](C)(C)C)cc2)C(=O)N[C@@H](Cc2ccc3ccccc3c2)C(=O)NC2(C(=O)N[C@@H](CCCCNC(=O)COCCOCCNC(=O)COCCOCCNC(=O)CC[C@H](NC(=O)CCCCCCCCCCCCC)C(=O)O)C(=O)N[C@@H](CC(N)=O)C(=O)N[C@@H](Cc3cccnc3)C(=O)N(C)CC(=O)N(C)C)CCOCC2)NC(=O)[C@H](CCCCN(C)C(C)=O)NC(=O)[C@H](Cc2c[nH]c3c(C)cccc23)NC(=O)[C@H]([C@@H](C)O)NC1=O)C(=O)O [compound 398, cPEG3aCO-Pen(3)-K(PEG2PEG2gEC14)-T-7MeW-K(NMeAc)-Pen(3)-TMAPF-2Nal-THP-K(PEG2PEG2gEC14)-N-3Pya-Sar-CON(Me)2] ({Me3N+(CH2)2O(CH2)2O(CH2)2CO}-[Pen]K([AEEA-AEEA-γGlu-Myristoyl])T[Trp(7-Me)][Lys(Me)](Ac)[Pen]Y(X3)[2Nal][Thp]K([AEEA-AEEA-γGlu-Myristoyl])N[3Pal][Sar]-NMe2; disulfide 1-6) | 168 A^2
4 | CC(=O)N(C)CCCC[C@@H]1NC(=O)[C@H](Cc2c[nH]c3c(C)cccc23)NC(=O)[C@H]([C@@H](C)O)NC(=O)[C@H](CC(=O)N(C)C)NC(=O)[C@@H](NC(=O)CCOCCOCC[N+](C)(C)C)C(C)(C)SSC(C)(C)[C@@H](C(=O)N[C@@H](Cc2ccc(OCCOCCOCCNC(=N)N)cc2)C(=O)N[C@@H](Cc2ccc3ccccc3c2)C(=O)NC2(C(=O)N[C@@H](CCCCN(C)C(C)=O)C(=O)N[C@@H](CC(N)=O)C(=O)N[C@@H](Cc3cccnc3)C(=O)N(C)CC(=O)N(C)C)CCOCC2)NC1=O [compound 405, cPEG3aCO-Pen(3)-N(N(Me)2)-T-7MeW-K(NMeAc)-Pen(3)-GPEG3F-2Nal-THP-K(NMeAc)-N-3Pya-Sar-CON(Me)2] ({Me3N+(CH2)2O(CH2)2O(CH2)2CO}-[Pen]D(NMe2)T[Trp(7-Me)][Lys(Me)](Ac)[Pen]Y(X76)[2Nal][Thp][Lys(Me)](Ac)N[3Pal][Sar]-NMe2; disulfide 1-6) | 157 A^2
5 | CC(=O)N[C@@H]1C(=O)N[C@@H](CCNC(=N)N)C(=O)N[C@@H]([C@@H](C)O)C(=O)N[C@@H](Cc2c[nH]c3c(C)cccc23)C(=O)N[C@@H](CCCCN(C)C(C)=O)C(=O)N[C@H](C(=O)N[C@@H](Cc2ccc(OCCOCCOCC[N+](C)(C)C)cc2)C(=O)N[C@@H](Cc2ccc3ccccc3c2)C(=O)NC2(C(=O)N[C@@H](CCCCN(C)C(C)=O)C(=O)N[C@@H](CC(N)=O)C(=O)N[C@@H](Cc3cccnc3)C(=O)N(C)CC(=O)N(C)C)CCOCC2)C(C)(C)SSC1(C)C [compound 412] (Ac-[Pen][Agb]T[Trp(7-Me)][Lys(Me)](Ac)[Pen]Y(CH2CH2OCH2CH2OCH2CH2NMe3+)[2Nal][Thp][Lys(Me)](Ac)N[3Pal][Sar]-NMe2; disulfide 1-6) | 157 A^2
6 | CC(=O)N(C)CCCC[C@@H]1NC(=O)[C@H](Cc2c[nH]c3c(C)cccc23)NC(=O)[C@H]([C@@H](C)O)NC(=O)[C@H](CC(=O)N(C)C)NC(=O)[C@@H](NC(=O)CCOCCNC(=N)N)C(C)(C)SSC(C)(C)[C@@H](C(=O)N[C@@H](Cc2ccc(OCCOCCOCC[N+](C)(C)C)cc2)C(=O)N[C@@H](Cc2ccc3ccccc3c2)C(=O)NC2(C(=O)N[C@@H](CCCCN(C)C(C)=O)C(=O)N[C@@H](CC(N)=O)C(=O)N[C@@H](Cc3cccnc3)C(=O)N(C)CC(=O)N(C)C)CCOCC2)NC1=O [compound 413, cPEG2gCO-Pen(3)-N(N(Me)2)-T-7MeW-K(NMeAc)-Pen(3)-APEG3F-2Nal-THP-K(NMeAc)-N-3Pya-Sar-CON(Me)2] (X31-[Pen]D(NMe2)T[Trp(7-Me)][Lys(Me)](Ac)[Pen]Y(CH2CH2OCH2CH2OCH2CH2NMe3+)[2Nal][Thp][Lys(Me)](Ac)N[3Pal][Sar]-NMe2; disulfide 1-6) | 154 A^2

Other lines, results leading:

Row | EPSA | SMILES
7 | 157 A^2 | CCCCCCCCCCCCCC(=O)N[C@@H](CCC(=O)NCCOCCOCC(=O)NCCOCCOCC(=O)NCCCC[C@@H]1NC(=O)[C@H](Cc2c[nH]c3c(C)cccc23)NC(=O)[C@H]([C@@H](C)O)NC(=O)[C@H](CC(=O)N(C)C)NC(=O)[C@@H](NC(=O)CCOCCOCC[N+](C)(C)C)C(C)(C)SSC(C)(C)[C@@H](C(=O)N[C@@H](Cc2ccc(OCCCCC[N+](C)(C)C)cc2)C(=O)N[C@@H](Cc2ccc3ccccc3c2)C(=O)NC2(C(=O)N[C@@H](CCCCN(C)C(C)=O)C(=O)N[C@@H](CC(N)=O)C(=O)N[C@@H](Cc3cccnc3)C(=O)N(C)CC(=O)N(C)C)CCOCC2)NC1=O)C(=O)O [compound 399, cPEG3aCO-Pen(3)-N(N(Me)2)-T-7MeW-K(PEG2PEG2gEC14)-Pen(3)-TMAPF-2Nal-THP-K(NMeAc)-N-3Pya-Sar-CON(Me)2] ({Me3N+(CH2)2O(CH2)2O(CH2)2CO}-[Pen]D(NMe2)T[Trp(7-Me)]K([AEEA-AEEA-γGlu-Myristoyl])[Pen]Y(X3)[2Nal][Thp][Lys(Me)](Ac)N[3Pal][Sar]-NMe2; disulfide 1-6)
8 | 156 A^2 | CCCCCCCCCCCCCC(=O)N[C@@H](CCC(=O)NCCOCCOCC(=O)NCCOCCOCC(=O)NCCCC[C@H](NC(=O)C1(NC(=O)[C@H](Cc2ccc3ccccc3c2)NC(=O)[C@H](Cc2ccc(OCCCCC[N+](C)(C)C)cc2)NC(=O)[C@H]2NC(=O)[C@H](CCCCN(C)C(C)=O)NC(=O)[C@H](Cc3c[nH]c4c(C)cccc34)NC(=O)[C@H]([C@@H](C)O)NC(=O)[C@H](CC(=O)N(C)C)NC(=O)[C@@H](NC(=O)CCOCCOCC[N+](C)(C)C)C(C)(C)SSC2(C)C)CCOCC1)C(=O)N[C@@H](CC(N)=O)C(=O)N[C@@H](Cc1cccnc1)C(=O)N(C)CC(=O)N(C)C)C(=O)O [compound 402, cPEG3aCO-Pen(3)-N(N(Me)2)-T-7MeW-K(NMeAc)-Pen(3)-TMAPF-2Nal-THP-K(PEG2PEG2gEC14)-N-3Pya-Sar-CON(Me)2] ({Me3N+(CH2)2O(CH2)2O(CH2)2CO}-[Pen]D(NMe2)T[Trp(7-Me)][Lys(Me)](Ac)[Pen]Y(X3)[2Nal][Thp]K([AEEA-AEEA-γGlu-Myristoyl])N[3Pal][Sar]-NMe2; disulfide 1-6)
9 | 151 A^2 | CCCCCCCCCCCC(=O)NCCOCCOCC(=O)NCCOCCOCC(=O)NCC[N+](C)(C)CC(=O)NCCCC[C@@H](C(N)=O)N(C)C(=O)[C@H](Cc1cccnc1)NC(=O)[C@H](CC(N)=O)NC(=O)[C@H](CCCCN(C)C(C)=O)NC(=O)C1(NC(=O)[C@H](Cc2ccc3ccccc3c2)NC(=O)[C@H](Cc2ccc(OCCCCC[N+](C)(C)C)cc2)NC(=O)[C@H]2NC(=O)[C@H](CCCCNC(C)=O)NC(=O)[C@H](Cc3c[nH]c4c(C)cccc34)NC(=O)[C@H]([C@@H](C)O)NC(=O)[C@H](CC(=O)N(C)C)NC(=O)[C@@H](NC(=O)CCOCCOCC[N+](C)(C)C)C(C)(C)SSC2(C)C)CCOCC1 [compound 407, cPEG3aCO-Pen(3)-N(N(Me)2)-T-7MeW-K(Ac)-Pen(3)-TMAPF-2Nal-THP-K(NMeac)-N-3Pya-NMeK(SP6PEG2PEG2C12)-CONH2] ({Me3N+(CH2)2O(CH2)2O(CH2)2CO}-[Pen]D(NMe2)T[Trp(7-Me)]K(Ac)[Pen]Y(X3)[2Nal][Thp][Lys(Me)](Ac)N[3Pal][NMeK](X56)-NH2; disulfide 1-6)
